In US9040252B2, “Method for increasing and regulating light emission from a chemiluminescent reaction” (Cyanagen S.R.L., priority 2010, dated 2015):

Molecular target: T1, horseradish peroxidase (HRP-type VIA) (Armoracia rusticana, UniProt P00433)
T1 construct: purchased Sigma-Aldrich
T1 sequence (P00433 31-338 limits assumed): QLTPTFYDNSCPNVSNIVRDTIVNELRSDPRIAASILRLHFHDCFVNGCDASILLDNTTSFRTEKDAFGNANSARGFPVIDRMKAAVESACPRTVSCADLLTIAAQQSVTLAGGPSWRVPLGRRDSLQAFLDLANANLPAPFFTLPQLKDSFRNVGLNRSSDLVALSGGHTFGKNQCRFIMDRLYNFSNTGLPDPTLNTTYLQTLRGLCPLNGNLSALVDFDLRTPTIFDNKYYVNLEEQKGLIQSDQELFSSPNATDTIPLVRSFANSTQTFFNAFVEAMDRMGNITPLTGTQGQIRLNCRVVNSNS
Assay: Dependence of the enhanced luminol-peroxide-peroxidase chemiluminescent reaction on secondary enhancer concentration
Format: biochemical
Conditions: pH 9.00 Tris buffer; initial light output, FIG. 4
Protocol: All measurements reported in Examples were carried out with a Varian Eclipse spectrofluorimeter and the following settings: bio/chemiluminescence mode; emission wavelength: 425 nm; emission slit: 20 nm; Photomultiplier Detection Voltage: medium.
A series of chemiluminescent substrates in 0.15 M, pH 9.00+−0.05 Tris buffer, is prepared, with the following compositions:
[luminol sodium salt]=5 mM
[sodium 3-(phenothiazin-10-yl)propane-1-sulfonate]=3 mM secondary enhancer=MORP, imidazole, 1-methylimidazole, 1,2,3-triazole, 1,2,4-triazole at the following concentrations:
A series of disposable polymethylmethacrylate cuvettes is prepared, each containing 2 mL of substrate solution. To each cuvette are added 10 μL of a 2 μg/mL horseradish peroxidase solution (HRP-type VIA) solution and simultaneously a 30 seconds countdown is started. The cuvette is closed with a square piece of parafilm and vortexed for 3 seconds. The cuvette is then inserted into the spectrofluorimeter. At the end of the 30 seconds countdown measurement of the luminescent signal is initiated and recorded for a 900 sec period. In all cases the signal reaches a plateau level within 30 seconds after the addition of the peroxidase, and then begins to slowly decrease. Initial, plateau levels are plotted vs. secondary enhancer concentration, FIG. 4. As it can be seen, the effect of MORP on signal intensity is quite strong even at very low concentrations. Signal output reaches a sharp maximum at about 1.5 mM of MORP and then falls abruptly. In contrast, N-azoles exert a much more gradual effect on signal intensity, reaching a plateau at much higher concentration levels. Thus, they afford a considerable degree of regulation of the chemiluminescent light output, which cannot be obtained with dialkylaminopyridine secondary enhancers such as MORP.

SMILES | behaviour of enhancement effect with increasing secondary enhancer concentration
c1c[nH]nn1 [1,2,3-triazole] | tend to reach a plateau
Cn1ccnc1 [1-methylimidazole] | tend to reach a plateau
c1cc(N2CCOCC2)ccn1 [MORP, 4-morpholinopyridine, reference compound] | sharply decreases its enhancement effect with a further increase in concentration
c1c[nH]cn1 [imidazole] | begin to slowly decrease their action at very high concentration
c1nc[nH]n1 [1,2,4-triazole] | tend to reach a plateau
